In ChEMBL document CHEMBL2163283, “Design and synthesis of novel stiripentol analogues as potential anticonvulsants” (Eur J Med Chem, 2012):
Calls of active or inactive are those of the source. No cut-off for these calls is given here.

Tests used:
[1] = system: Mus musculus; assay: Anticonvulsant activity in Swiss albino mouse assessed as protection against subcutaneous pentylenetetrazol-induced seizures at 350 umol/kg, ip administered 30 mins before pentylenetetrazole challenge measured after 30 mins; assay type: functional
[2] = system: Mus musculus; assay: Anticonvulsant activity in Swiss albino mouse assessed as protection against subcutaneous pentylenetetrazol-induced seizures at 350 umol/kg, ip administered 30 mins before pentylenetetrazole challenge measured after 30 mins relative to stiripentol; assay type: functional
[3] = system: Mus musculus; assay: Neurotoxicity in Swiss albino mouse assessed as climbing response to inverted mesh at 350 umol/kg, sc administered measured every 15 mins for 2 hrs by wire mesh grasping test; assay type: toxicity, organism-based; conditions: in vivo
[4] = system: Mus musculus; assay: Anticonvulsant activity in Swiss albino mouse assessed as maximal electroshock-induced seizures at 350 umol/kg, ip administered 30 mins before electroshock challenge; assay type: functional
[5] = system: Mus musculus; assay: Neurotoxicity in Swiss albino mouse assessed as effect on hindlimb grip strength at 350 umol/kg, sc administered measured every 15 mins for 2 hrs; assay type: toxicity, organism-based; conditions: in vivo
[6] = system: Mus musculus; assay: Anticonvulsant activity in ip dosed Swiss albino mouse assessed as protection against subcutaneous pentylenetetrazol-induced seizures administered 30 mins before pentylenetetrazole challenge measured after 30 mins; assay type: functional
[7] = system: Mus musculus; assay: Anticonvulsant activity in Swiss albino mouse assessed as protection against subcutaneous pentylenetetrazol-induced seizures at 370 umol/kg, ip administered 30 mins before pentylenetetrazole challenge measured after 30 mins relative to stiripentol; assay type: functional
[8] = system: Mus musculus; assay: Anticonvulsant activity in Swiss albino mouse assessed as maximal electroshock-induced seizures at 370 umol/kg, ip administered 30 mins before electroshock challenge; assay type: functional, organism-based
[9] = system: Mus musculus; assay: Anticonvulsant activity in Swiss albino mouse assessed as protection against subcutaneous pentylenetetrazol-induced seizures at 370 umol/kg, ip administered 30 mins before pentylenetetrazole challenge measured after 30 mins; assay type: functional
[10] = system: Mus musculus; assay: Anticonvulsant activity in Swiss albino mouse assessed as maximal electroshock-induced seizures at 410 umol/kg, ip administered 30 mins before electroshock challenge; assay type: functional
[11] = system: Mus musculus; assay: Anticonvulsant activity in Swiss albino mouse assessed as protection against subcutaneous pentylenetetrazol-induced seizures at 410 umol/kg, ip administered 30 mins before pentylenetetrazole challenge measured after 30 mins relative to stiripentol; assay type: functional
[12] = system: Mus musculus; assay: Anticonvulsant activity in Swiss albino mouse assessed as protection against subcutaneous pentylenetetrazol-induced seizures at 410 umol/kg, ip administered 30 mins before pentylenetetrazole challenge measured after 30 mins; assay type: functional
[13] = system: Mus musculus; assay: Anticonvulsant activity in Swiss albino mouse assessed as protection against subcutaneous pentylenetetrazol-induced seizures at 346 umol/kg, ip administered 30 mins before pentylenetetrazole challenge measured after 30 mins relative to stiripentol; assay type: functional
[14] = system: Mus musculus; assay: Anticonvulsant activity in Swiss albino mouse assessed as protection against subcutaneous pentylenetetrazol-induced seizures at 346 umol/kg, ip administered 30 mins before pentylenetetrazole challenge measured after 30 mins; assay type: functional
[15] = system: Mus musculus; assay: Anticonvulsant activity in Swiss albino mouse assessed as maximal electroshock-induced seizures at 346 umol/kg, ip administered 30 mins before electroshock challenge; assay type: functional
[16] = system: Mus musculus; assay: Anticonvulsant activity in Swiss albino mouse assessed as maximal electroshock-induced seizures at 340 umol/kg, ip administered 30 mins before electroshock challenge; assay type: functional
[17] = system: Mus musculus; assay: Anticonvulsant activity in Swiss albino mouse assessed as protection against subcutaneous pentylenetetrazol-induced seizures at 340 umol/kg, ip administered 30 mins before pentylenetetrazole challenge measured after 30 mins; assay type: functional
[18] = system: Mus musculus; assay: Anticonvulsant activity in Swiss albino mouse assessed as protection against subcutaneous pentylenetetrazol-induced seizures at 340 umol/kg, ip administered 30 mins before pentylenetetrazole challenge measured after 30 mins relative to stiripentol; assay type: functional
[19] = system: Mus musculus; assay: Anticonvulsant activity in Swiss albino mouse assessed as protection against subcutaneous pentylenetetrazol-induced seizures at 747 umol/kg, ip administered 30 mins before pentylenetetrazole challenge measured after 30 mins; assay type: functional
[20] = system: Mus musculus; assay: Anticonvulsant activity in Swiss albino mouse assessed as protection against subcutaneous pentylenetetrazol-induced seizures at 384 umol/kg, ip administered 30 mins before pentylenetetrazole challenge measured after 30 mins; assay type: functional
[21] = system: Mus musculus; assay: Neurotoxicity in Swiss albino mouse assessed as effect on hindlimb grip strength at 747 umol/kg, sc administered measured every 15 mins for 2 hrs; assay type: toxicity, organism-based; conditions: in vivo
[22] = system: Mus musculus; assay: Anticonvulsant activity in Swiss albino mouse assessed as protection against subcutaneous pentylenetetrazol-induced seizures at 640 umol/kg, ip administered 30 mins before pentylenetetrazole challenge measured after 30 mins; assay type: functional
[23] = system: Mus musculus; assay: Anticonvulsant activity in Swiss albino mouse assessed as maximal electroshock-induced seizures at 640 umol/kg, ip administered 30 mins before electroshock challenge; assay type: functional
[24] = system: Mus musculus; assay: Anticonvulsant activity in Swiss albino mouse assessed as protection against subcutaneous pentylenetetrazol-induced seizures at 576 umol/kg, ip administered 30 mins before pentylenetetrazole challenge measured after 30 mins; assay type: functional
[25] = system: Mus musculus; assay: Anticonvulsant activity in ip dosed Swiss albino mouse assessed as maximal electroshock-induced seizures administered 30 mins before electroshock challenge; assay type: functional
[26] = system: Mus musculus; assay: Anticonvulsant activity in Swiss albino mouse assessed as protection against subcutaneous pentylenetetrazol-induced seizures at 427 umol/kg, ip administered 30 mins before pentylenetetrazole challenge measured after 30 mins; assay type: functional
[27] = system: Mus musculus; assay: Neurotoxicity in Swiss albino mouse assessed as climbing response to inverted mesh at 747 umol/kg, sc administered measured every 15 mins for 2 hrs by wire mesh grasping test; assay type: toxicity, organism-based; conditions: in vivo
[28] = system: Mus musculus; assay: Anticonvulsant activity in Swiss albino mouse assessed as protection against subcutaneous pentylenetetrazol-induced seizures at 534 umol/kg, ip administered 30 mins before pentylenetetrazole challenge measured after 30 mins; assay type: functional
[29] = system: Mus musculus; assay: Anticonvulsant activity in Swiss albino mouse assessed as protection against subcutaneous pentylenetetrazol-induced seizures at 491 umol/kg, ip administered 30 mins before pentylenetetrazole challenge measured after 30 mins; assay type: functional
[30] = system: Mus musculus; assay: Anticonvulsant activity in Swiss albino mouse assessed as protection against subcutaneous pentylenetetrazol-induced seizures at 357 umol/kg, ip administered 30 mins before pentylenetetrazole challenge measured after 30 mins relative to stiripentol; assay type: functional
[31] = system: Mus musculus; assay: Anticonvulsant activity in Swiss albino mouse assessed as maximal electroshock-induced seizures at 357 umol/kg, ip administered 30 mins before electroshock challenge; assay type: functional
[32] = system: Mus musculus; assay: Anticonvulsant activity in Swiss albino mouse assessed as protection against subcutaneous pentylenetetrazol-induced seizures at 357 umol/kg, ip administered 30 mins before pentylenetetrazole challenge measured after 30 mins; assay type: functional
[33] = system: Mus musculus; assay: Anticonvulsant activity in Swiss albino mouse assessed as maximal electroshock-induced seizures at 390 umol/kg, ip administered 30 mins before electroshock challenge; assay type: functional, organism-based
[34] = system: Mus musculus; assay: Anticonvulsant activity in Swiss albino mouse assessed as protection against subcutaneous pentylenetetrazol-induced seizures at 390 umol/kg, ip administered 30 mins before pentylenetetrazole challenge measured after 30 mins; assay type: functional
[35] = system: Mus musculus; assay: Anticonvulsant activity in Swiss albino mouse assessed as protection against subcutaneous pentylenetetrazol-induced seizures at 390 umol/kg, ip administered 30 mins before pentylenetetrazole challenge measured after 30 mins relative to stiripentol; assay type: functional

SMILES: CC(C)(C)C1=NN(C(=O)c2ccc(Br)cc2)C(c2ccc3c(c2)OCO3)C1 (racemic)
- Activity [1]: 100%
- Activity [2]: 2.13%
- Activity [3]: Non-toxic
- Activity [4]: 16%
- Activity [5]: Non-toxic
- ED50 [6]: 110 mg/kg

SMILES: CC(C)(C)C(/C=C/c1ccc2c(c1)OCO2)=N/NC(=O)Nc1ccc(Cl)cc1
- Activity [7]: 1.15%
- Activity [8]: inactive
- Activity [9]: 33%

SMILES: CC(C)(C)C1=NN(C(=O)Nc2ccccc2)C(c2ccc3c(c2)OCO3)C1 (racemic)
- Activity [10]: 16%
- Activity [11]: 1.3%
- Activity [12]: 66%

SMILES: CC(C)(C)C1=NN(C(N)=O)C(c2ccc3c(c2)OCO3)C1 (racemic)
- Activity [13]: 1.11%
- Activity [14]: 16%
- Activity [15]: 66%

SMILES: Cc1ccccc1C(=O)N1N=C(C(C)(C)C)CC1c1ccc2c(c1)OCO2 (racemic)
- Activity [10]: 16%
- Activity [11]: inactive
- Activity [12]: inactive

SMILES: CC(C)(C)C(/C=C/c1ccc2c(c1)OCO2)=N/NC(=O)Nc1ccc(Cl)cc1Cl
- Activity [16]: 16%
- Activity [17]: 33%
- Activity [18]: 1.26%

SMILES: CC(C)(C)C(O)/C=C/c1ccc2c(c1)OCO2 (stereo unspecified) [STIRIPENTOL]
- Activity [19]: 100%
- Activity [20]: 16%
- Activity [21]: Non-toxic
- Activity [22]: 83%
- Activity [23]: 66%
- Activity [24]: 83%
- ED50 [25]: 277 mg/kg
- ED50 [6]: 115 mg/kg
- Activity [26]: 33%
- Activity [27]: Non-toxic
- Activity [28]: 66%
- Activity [29]: 50%

SMILES: CC(C)(C)C1=NN(C(=O)c2ccc(Cl)cc2Cl)C(c2ccc3c(c2)OCO3)C1 (racemic)
- Activity [30]: 1.19%
- Activity [31]: 16%
- Activity [32]: 33%

SMILES: CC(C)(C)C1=NN(C(=O)Nc2ccc(F)cc2)C(c2ccc3c(c2)OCO3)C1 (racemic)
- Activity [33]: inactive
- Activity [34]: 33%
- Activity [35]: 1.09 ratio to stiripentol

SMILES: CC(C)(C)C(/C=C/c1ccc2c(c1)OCO2)=N/NC(=O)Nc1ccccc1
- Activity [10]: inactive
- Activity [11]: 1.3%
- Activity [12]: 66%

SMILES: CC(C)(C)C1=NN(C(=O)Nc2ccc(Cl)cc2)C(c2ccc3c(c2)OCO3)C1 (racemic)
- Activity [7]: 1.15%
- Activity [8]: inactive
- Activity [9]: 33%

SMILES: Cc1ccccc1NC(=O)N1N=C(C(C)(C)C)CC1c1ccc2c(c1)OCO2 (racemic)
- Activity [33]: inactive
- Activity [34]: 16%
- Activity [35]: 0.95 ratio to stiripentol

SMILES: CC(C)(C)C1=NN(C(=O)Nc2ccc(Cl)cc2Cl)C(c2ccc3c(c2)OCO3)C1 (racemic)
- Activity [16]: inactive
- Activity [17]: 33%
- Activity [18]: 1.26%
